Structures are written as SMILES. Where “and” joins values, the source holds several entries; their conditions need not be identical. Equal entries are not always repeated. Where two headings read alike, the source gives them in different places.

A short description of experiment [1]: DPPH free radical scavenging antioxidant assay. As to the method: H2O2 produced during metabolic events in the brain may be crucial for signaling and metabolic functions. The compounds were screened to check their potential to inhibit ROS through the DPPH assay. […] However, further studies are required to confirm this effect.
The DPPH approach, which gauges the free radical scavenging activity, was used to evaluate the antioxidant properties of the compounds. The test was performed according to the literature method. The stock solution of DPPH (0.5 mM) was prepared, and methanol was used to create each dilution. The different concentrations (10, 25, 50, 75, and 100 μM) of the test compounds (C1–C15) were prepared and compared with the standard ascorbic acid. The percentage antioxidant activity of the compounds was calculated using the following formula: % Antioxidant activity = [(Aabsorbance − Atest)/Aabsorbance] × 100.

The next experiment deals with T1, hMAO-A (Homo sapiens, UniProt P21397).
T1 sequence (P21397 1-527): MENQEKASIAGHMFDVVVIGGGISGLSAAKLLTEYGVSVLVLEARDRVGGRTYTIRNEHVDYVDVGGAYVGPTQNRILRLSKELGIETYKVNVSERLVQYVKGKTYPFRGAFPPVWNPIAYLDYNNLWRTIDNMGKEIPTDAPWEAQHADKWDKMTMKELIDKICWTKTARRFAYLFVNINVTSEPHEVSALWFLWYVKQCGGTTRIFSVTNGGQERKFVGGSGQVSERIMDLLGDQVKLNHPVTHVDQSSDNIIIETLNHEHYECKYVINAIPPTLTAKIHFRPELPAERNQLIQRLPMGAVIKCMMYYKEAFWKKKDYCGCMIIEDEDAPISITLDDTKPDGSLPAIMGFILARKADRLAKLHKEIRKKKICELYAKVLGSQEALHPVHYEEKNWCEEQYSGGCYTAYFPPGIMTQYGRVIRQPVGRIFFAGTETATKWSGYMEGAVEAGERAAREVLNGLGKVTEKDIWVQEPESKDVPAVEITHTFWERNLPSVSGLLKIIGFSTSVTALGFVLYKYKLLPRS
Briefly: MAO inhibition assay (Amplex Red, fluorimetric), MAO-A.

In another experiment the target is T2, hMAO-B (Homo sapiens, UniProt P27338).
T2 sequence (P27338 1-520): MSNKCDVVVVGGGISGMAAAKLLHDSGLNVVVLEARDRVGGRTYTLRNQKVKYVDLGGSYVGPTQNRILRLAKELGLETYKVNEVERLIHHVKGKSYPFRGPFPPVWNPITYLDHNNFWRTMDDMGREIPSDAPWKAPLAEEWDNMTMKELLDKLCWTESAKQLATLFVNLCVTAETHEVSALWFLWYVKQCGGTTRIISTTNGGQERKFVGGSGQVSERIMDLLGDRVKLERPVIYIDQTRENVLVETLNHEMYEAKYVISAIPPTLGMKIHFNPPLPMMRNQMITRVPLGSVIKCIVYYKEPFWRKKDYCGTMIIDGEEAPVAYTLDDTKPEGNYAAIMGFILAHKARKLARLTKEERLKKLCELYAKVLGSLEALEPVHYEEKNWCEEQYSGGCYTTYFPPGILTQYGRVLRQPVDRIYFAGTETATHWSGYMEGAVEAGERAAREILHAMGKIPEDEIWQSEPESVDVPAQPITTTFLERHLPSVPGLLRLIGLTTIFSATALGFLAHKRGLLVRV
The experiment is described as follows: MAO inhibition assay (Amplex Red, fluorimetric), MAO-B.

Setting [2] is: read-out: Percentage Inhibition at 20 μM MAO-A, 20 μM.
The mark [3] stands for this setting: read-out: Percentage Inhibition at 20 μM MAO-B.
[4] abbreviates: read-out: Percentage Inhibition at 20 μM MAO-A.
Setting [5] is: read-out: IC50 Values MAO-A, class symbol, IC50 not calculated.

As usually defined, the IC50 is the concentration needed to halve the response being measured. Lower therefore signals greater potency in that assay. Consider `O=C(/C=C/c1ccccc1Cl)c1ccc(N2CCOCC2)cc1` [Compound C12, (E)-3-(2-Chlorophenyl)-1-(4-morpholinophenyl)prop-2-en-1-one], for which the “% Antioxidant Activity” value in experiment [1] (10 µM) worked out at 3.03%; in experiment [1] (25 µM), 19.54%; in experiment [1] (50 µM), 40.88%; in experiment [1] (75 µM) it was 44.56%; in experiment [1] (100 µM), 35.95%. For the same molecule, at hMAO-A, the IC50 amounted to 9.35 ± 0.11 µM. Also, the “Percentage Inhibition at 20 μM MAO-A” value on hMAO-A (20 μM) is listed as 67.76%. The inhibition at 20 µM at hMAO-A (setting [2]) was 67.7%; at hMAO-B (read-out: IC50 Values MAO-B), under 50%; on hMAO-B (setting [3]), 23.9%.
Regarding `O=C(/C=C/c1ccc(Br)cc1)c1ccc(N2CCOCC2)cc1` [Compound C1, (E)-3-(4-Bromophenyl)-1-(4-morpholinophenyl)prop-2-en-1-one], the “% Antioxidant Activity” value in experiment [1] (10 µM) is 9.24%; in experiment [1] (25 µM), 21.80%; in experiment [1] (50 µM), 35.78%; in experiment [1] (75 µM), 50% and 53.13%; in experiment [1] (100 µM) it was 50% and 54.82%. The inhibition at 20 µM on hMAO-A (read-out: IC50 Values MAO-A) is under 50%; at hMAO-A (setting [4]) it was 13.6%; on hMAO-B (read-out: IC50 Values MAO-B) it was under 50%; at hMAO-B (setting [3]), 6.59%.
In the case of `O=C(/C=C/c1ccc(Br)c(F)c1)c1ccc(N2CCOCC2)cc1` [Compound C5, (E)-3-(4-Bromo-3-fluorophenyl)-1-(4-morpholinophenyl)prop-2-en-1-one], the “% Antioxidant Activity” value in experiment [1] (10 µM) is 19.11%; in experiment [1] (25 µM), 23.41%; in experiment [1] (50 µM), 38.15%; in experiment [1] (75 µM), 49.88%; in experiment [1] (100 µM) it was 50% and 50.95%. Also, the inhibition at 20 µM at hMAO-A (setting [5]) is under 50%; at hMAO-A (setting [2]) it was 36.8%; on hMAO-B (read-out: IC50 Values MAO-B), under 50%; at hMAO-B (setting [3]) it was 6.54%.
As for `O=C(/C=C/c1ccc(Cl)c(Cl)c1)c1ccc(N2CCOCC2)cc1` [Compound C2, (E)-3-(3,4-Dichlorophenyl)-1-(4-morpholinophenyl)prop-2-en-1-one], the “% Antioxidant Activity” value in experiment [1] (10 µM) is 6.63%; in experiment [1] (25 µM) it was 25.78%; in experiment [1] (50 µM) it was 37.18%; in experiment [1] (75 µM), 50% and 50.91%; in experiment [1] (100 µM), 50% and 53.12%. The inhibition at 20 µM was under 50% on hMAO-A (setting [5]), 19.4% on hMAO-A (setting [2]), under 50% at hMAO-B (read-out: IC50 Values MAO-B) and 4.74% on hMAO-B (setting [3]).
For `COc1ccc(/C=C/C(=O)c2ccc(N3CCOCC3)cc2)cc1OC` [Compound C4, (E)-3-(3,4-Dimethoxyphenyl)-1-(4-morpholinophenyl)prop-2-en-1-one], the “% Antioxidant Activity” value in experiment [1] (10 µM) is 16.37%; in experiment [1] (25 µM), 32.47%; in experiment [1] (50 µM) it was 41.07%; in experiment [1] (75 µM), 33.69%; in experiment [1] (100 µM) it was 50% and 52.62%. In addition, the inhibition at 20 µM at hMAO-A (setting [5]) is under 50%; on hMAO-A (setting [2]) it was 15.8%; on hMAO-B (read-out: IC50 Values MAO-B) it was under 50%; on hMAO-B (setting [3]) it was 5.56%.
As for `CCc1ccc(/C=C/C(=O)c2ccc(N3CCOCC3)cc2)cc1` [Compound C13, (E)-3-(4-Ethylphenyl)-1-(4-morpholinophenyl)prop-2-en-1-one], the “% Antioxidant Activity” value is 2.54% in experiment [1] (10 µM); 15.55% in experiment [1] (25 µM); 41.40% in experiment [1] (50 µM); 22.18% in experiment [1] (75 µM); 66.87% in experiment [1] (100 µM). For the same molecule, the inhibition at 20 µM at hMAO-A (setting [4]) was 7.25%; on hMAO-B (read-out: IC50 Values MAO-B), under 50%; on hMAO-B (setting [3]), 17.5%.
Consider `O=C1O[C@H]([C@@H](O)CO)C(O)=C1O` [Ascorbic acid, ascorbic acid, reference compound], for which the “% Antioxidant Activity” value in experiment [1] (10 µM) is listed as 8.03%; in experiment [1] (25 µM) it was 20.27%; in experiment [1] (50 µM), 40.23%; in experiment [1] (75 µM) it was 46.33%; in experiment [1] (100 µM), 58.53%; in experiment [1] (100 µM, listed as ascorbic acid) it was 50%.
`C#CCN(C)Cc1ccccc1` [Pargyline, pargyline, reference compound]: the values for the inhibition at 20 µM on hMAO-A (setting [4]) and on hMAO-B (setting [3]) were under 50% and 99%, respectively.
As to `O=C(/C=C/c1cccc(F)c1)c1ccc(N2CCOCC2)cc1` [Compound C10, (E)-3-(3-Fluorophenyl)-1-(4-morpholinophenyl)prop-2-en-1-one], the “% Antioxidant Activity” value in experiment [1] (10 µM) was found to be 17.09%; in experiment [1] (25 µM) it was 21.05%; in experiment [1] (50 µM), 34.56%; in experiment [1] (75 µM), 42.27%; in experiment [1] (100 µM) it was 32.62%. Further, the inhibition at 20 µM was under 50% on hMAO-A (setting [5]), 33.9% at hMAO-A (setting [2]), under 50% on hMAO-B (read-out: IC50 Values MAO-B) and 12.4% on hMAO-B (setting [3]).
Regarding `C#CCN(C)CCCOc1ccc(Cl)cc1Cl` [Clorgyline, clorgyline, reference compound], the inhibition at 20 µM at hMAO-A (setting [4]) stood at 95%.
On to `Cc1cccc(/C=C/C(=O)c2ccc(N3CCOCC3)cc2)c1` [Compound C8, (E)-1-(4-Morpholinophenyl)-3-(m-tolyl)prop-2-en-1-one], for which the “% Antioxidant Activity” value is reported as 16.56% in experiment [1] (10 µM); 31.47% in experiment [1] (25 µM); 36.01% in experiment [1] (50 µM); 49.24% in experiment [1] (75 µM); 66.42% in experiment [1] (100 µM). For the same molecule, the inhibition at 20 µM was under 50% on hMAO-A (setting [5]), 3.11% at hMAO-A (setting [2]), under 50% on hMAO-B (read-out: IC50 Values MAO-B) and 6.32% on hMAO-B (setting [3]).
`O=C(/C=C/c1ccc(Cl)cc1)c1ccc(N2CCOCC2)cc1` [Compound C7, (E)-3-(4-Chlorophenyl)-1-(4-morpholinophenyl)prop-2-en-1-one]: the “% Antioxidant Activity” value in experiment [1] (10 µM) was 13.81%; in experiment [1] (25 µM), 15.62%; in experiment [1] (50 µM), 32.06%; in experiment [1] (75 µM) it was 50% and 52.12%; in experiment [1] (100 µM), 50% and 53.37%. Moreover, the inhibition at 20 µM at hMAO-A (read-out: IC50 Values MAO-A) is under 50%; on hMAO-A (setting [4]), 21.4%; at hMAO-B (read-out: IC50 Values MAO-B), under 50%; at hMAO-B (setting [3]), 7.43%.
`COc1ccccc1/C=C/C(=O)c1ccc(N2CCOCC2)cc1` [Compound C11, (E)-3-(2-Methoxyphenyl)-1-(4-morpholinophenyl)prop-2-en-1-one]: the “% Antioxidant Activity” value in experiment [1] (10 µM) is on record as 13.89%; in experiment [1] (25 µM) it was 16.00%; in experiment [1] (50 µM), 40.26%; in experiment [1] (75 µM) it was 27.09%; in experiment [1] (100 µM) it was 36.45%. Besides, the inhibition at 20 µM is under 50% at hMAO-A (setting [5]), 21.1% at hMAO-A (setting [2]), under 50% at hMAO-B (read-out: IC50 Values MAO-B) and 18.6% at hMAO-B (setting [3]).
Consider `Cc1ccc(/C=C/C(=O)c2ccc(N3CCOCC3)cc2)cc1` [Compound C9, (E)-1-(4-Morpholinophenyl)-3-(p-tolyl)prop-2-en-1-one], for which the “% Antioxidant Activity” value in experiment [1] (10 µM) amounted to 8.65%; in experiment [1] (25 µM) it was 23.43%; in experiment [1] (50 µM) it was 35.75%; in experiment [1] (75 µM), 39.19%; in experiment [1] (100 µM), 44.66%. Also, the inhibition at 20 µM at hMAO-A (read-out: IC50 Values MAO-A) is under 50%; at hMAO-A (setting [4]) it was 4.95%; at hMAO-B (read-out: IC50 Values MAO-B), under 50%; on hMAO-B (setting [3]), 6.77%.

The values above are taken from paper PMC11945657, “Microwave-Assisted Synthesis of Morpholine-Based Chalcones as Reversible MAO-A Inhibitors in the Management of Mental Depression” (Pharmaceuticals, 2025).
